Test results taken from patent publication US5508428A, “Spiro compound” (Daiichi Phamaceutical Co., Ltd., priority 1988, dated 1996).
In brackets after ≈: the same amount, converted by molar mass.

Tests used:
Format in all cases: cell-based
[1] = test system: E. coli, NIHJ; assay: Antibacterial activity (MIC), E. coli NIHJ; conditions: Escherichia coli
Experimental: (§1) The antibacterial activity assays were performed by the method specified by Japan Society of Chemotherapy (Chemotherapy 29(1), 76 (1981). The table of antibacterial activity is followed by the reaction schemes for the synthesis of various spiro ring-containing cyclic amine derivatives, intermediate compounds for synthesis of quinolone rings and synthesis of various spiro compounds.

[2] = test system: S. flexneri, 2A 5503; assay: Antibacterial activity (MIC), S. flexneri 2A 5503; conditions: Shigella flexneri, 2A5503
Experimental: as §1

[3] = test system: Pr. vulgaris, 08601; assay: Antibacterial activity (MIC), Pr. vulgaris 08601; conditions: Proteus vulgaris
Experimental: as §1

[4] = test system: Pr. mirabillis, IF0-3849; assay: Antibacterial activity (MIC), Pr. mirabillis IF0-3849
Experimental: as §1

[5] = test system: Ser. marcescens, 10100; assay: Antibacterial activity (MIC), Ser. marcescens 10100; conditions: Serratia marcescens, 10100, Ser. marcescens
Experimental: as §1

[6] = test system: Ps. aeruginosa, 32104; assay: Antibacterial activity (MIC), Ps. aeruginosa 32104; conditions: Pseudomonas aeruginosa, 32104, Ps. aeruginosa
Experimental: as §1

[7] = test system: Ps. aeruginosa, 32121; assay: Antibacterial activity (MIC), Ps. aeruginosa 32121; conditions: Pseudomonas aeruginosa, 32121, Ps. aeruginosa
Experimental: as §1

[8] = test system: Ps. maltophilia, IID-1275; assay: Antibacterial activity (MIC), Ps. maltophilia IID-1275; conditions: Stenotrophomonas maltophilia, IID1275, Ps. maltophilia
Experimental: as §1

[9] = test system: S. aureus, 209P; assay: Antibacterial activity (MIC), S. aureus 209P; conditions: Staphylococcus aureus
Experimental: as §1

[10] = test system: S. epidermidis, 56500; assay: Antibacterial activity (MIC), S. epidermidis 56500; conditions: Staphylococcus epidermidis, 56500, S. epidermidis
Experimental: as §1

[11] = test system: Str. pyogenes, G-36; assay: Antibacterial activity (MIC), Str. pyogenes G-36; conditions: Streptococcus pyogenes, G36, Str. pyogenes
Experimental: as §1

[12] = test system: Str. faecalis, ATCC-19433; assay: Antibacterial activity (MIC), Str. faecalis ATCC-19433; conditions: Enterococcus faecalis, ATCC19433, Str. faecalis
Experimental: as §1

NC1CN(c2cc3c(cc2F)c(=O)c(C(=O)O)cn3-c2ccc(F)cc2F)CC12CC2 (stereo not drawn) [Compound 34, 7-(7-amino-5-azaspiro[2.4]heptan-5-yl)-6-fluoro-1-(2.4-difluorophenyl)-1,4-dihydro-4-oxoquinoline-3-carboxylic acid]
MIC [1]: ≤ 0.05 µg/mL | MIC [2]: ≤ 0.05 µg/mL | MIC [3]: 0.2 µg/mL (≈ 0.466 µM) | MIC [4]: 0.39 µg/mL (≈ 0.908 µM) | MIC [5]: 0.39 µg/mL (≈ 0.908 µM) | MIC [6]: 0.39 µg/mL (≈ 0.908 µM) | MIC [7]: 0.2 µg/mL (≈ 0.466 µM) | MIC [8]: 0.1 µg/mL (≈ 0.233 µM) | MIC [9]: 0.1 µg/mL (≈ 0.233 µM) | MIC [10]: 0.2 µg/mL (≈ 0.466 µM) | MIC [11]: 0.39 µg/mL (≈ 0.908 µM) | MIC [12]: 0.78 µg/mL (≈ 1.82 µM)

NC1CN(c2nc3c(cc2F)c(=O)c(C(=O)O)cn3C2CC2)CC12CC2 (stereo not drawn) [Compound 35, 7-(7-amino-5-azaspiro[2.4]heptan-5-yl)-1-cyclopropyl-6-fluoro-1,4-dihydro-4-oxo-1,8-naphthyridine-3-carboxylic acid]
MIC [1]: ≤ 0.05 µg/mL | MIC [2]: ≤ 0.05 µg/mL | MIC [3]: ≤ 0.05 µg/mL | MIC [4]: 0.1 µg/mL (≈ 0.279 µM) | MIC [5]: ≤ 0.05 µg/mL | MIC [6]: 0.1 µg/mL (≈ 0.279 µM) | MIC [7]: ≤ 0.05 µg/mL | MIC [8]: ≤ 0.05 µg/mL | MIC [9]: 0.1 µg/mL (≈ 0.279 µM) | MIC [10]: 0.2 µg/mL (≈ 0.558 µM) | MIC [11]: 0.78 µg/mL (≈ 2.18 µM) | MIC [12]: 0.39 µg/mL (≈ 1.09 µM)

C[C@H]1COc2c(N3CC(N)C4(CC4)C3)c(F)cc3c(=O)c(C(=O)O)cn1c23 (stereo partly drawn) [Compound 36, 10-(7-Amino-5-azaspiro[2.4]heptan-5-yl)-9-fluoro-2,3-dihydro-3-(S)-methyl-7-oxo-7H-pyrido[1,2,3-de][1.4]-benzoxazine-6-carboxylic acid]
MIC [1]: ≤ 0.05 µg/mL | MIC [2]: ≤ 0.05 µg/mL | MIC [3]: ≤ 0.05 µg/mL | MIC [4]: 0.1 µg/mL (≈ 0.268 µM) | MIC [5]: 0.2 µg/mL (≈ 0.536 µM) | MIC [6]: 0.2 µg/mL (≈ 0.536 µM) | MIC [7]: 0.1 µg/mL (≈ 0.268 µM) | MIC [8]: 0.39 µg/mL (≈ 1.04 µM) | MIC [9]: 0.1 µg/mL (≈ 0.268 µM) | MIC [10]: 0.2 µg/mL (≈ 0.536 µM) | MIC [11]: 0.39 µg/mL (≈ 1.04 µM) | MIC [12]: 0.78 µg/mL (≈ 2.09 µM)

O=C(O)c1cn(C2CC2)c2cc(N3CCNC4(CC4)C3)c(F)cc2c1=O [Compound 37, 1-Cyclopropyl-7-(4,7-diazaspiro[2.5]octan-7-yl)-6-fluoro-1,4-dihydro-4-oxoquinoline-3-carboxylic acid]
MIC [1]: ≤ 0.05 µg/mL | MIC [2]: ≤ 0.05 µg/mL | MIC [3]: ≤ 0.05 µg/mL | MIC [4]: ≤ 0.05 µg/mL | MIC [5]: 0.1 µg/mL (≈ 0.28 µM) | MIC [6]: 0.2 µg/mL (≈ 0.56 µM) | MIC [7]: 0.2 µg/mL (≈ 0.56 µM) | MIC [8]: 0.39 µg/mL (≈ 1.09 µM) | MIC [9]: 0.2 µg/mL (≈ 0.56 µM) | MIC [10]: 0.39 µg/mL (≈ 1.09 µM) | MIC [11]: 0.78 µg/mL (≈ 2.18 µM) | MIC [12]: 0.78 µg/mL (≈ 2.18 µM)

O=C(O)c1cn(C2CC2)c2c(Cl)c(N3CC(O)C4(CC4)C3)c(F)cc2c1=O (stereo not drawn) [Compound 39, 7-(7-Hydroxy-5-azaspiro[2.4]heptan-5-yl)-8-chloro-1-cyclopropyl-6-fluoro-1,4-dihydro-4-oxoquinoline-3-carboxylic acid]
MIC [1]: ≤ 0.05 µg/mL | MIC [2]: ≤ 0.05 µg/mL | MIC [3]: ≤ 0.05 µg/mL | MIC [4]: 0.2 µg/mL (≈ 0.509 µM) | MIC [5]: 0.39 µg/mL (≈ 0.993 µM) | MIC [6]: 1.56 µg/mL (≈ 3.97 µM) | MIC [7]: 0.39 µg/mL (≈ 0.993 µM) | MIC [8]: ≤ 0.05 µg/mL | MIC [9]: ≤ 0.05 µg/mL | MIC [10]: ≤ 0.05 µg/mL | MIC [11]: 0.39 µg/mL (≈ 0.993 µM) | MIC [12]: 0.39 µg/mL (≈ 0.993 µM)

CC(C)(C)n1cc(C(=O)O)c(=O)c2cc(F)c(N3CC(N)C4(CC4)C3)nc21 (stereo not drawn) [Compound 41b, 7-(7-Amino-5-azaspiro[2.4]heptan-5-yl)-1,4-dihydro-6-fluoro-1-(2-methyl-2-propyl)-4-oxo-1,8-naphthyridine-3-carboxylic acid]
MIC [1]: ≤ 0.05 µg/mL | MIC [2]: ≤ 0.05 µg/mL | MIC [3]: 0.1 µg/mL (≈ 0.267 µM) | MIC [4]: 0.2 µg/mL (≈ 0.534 µM) | MIC [5]: 0.1 µg/mL (≈ 0.267 µM) | MIC [6]: 0.2 µg/mL (≈ 0.534 µM) | MIC [7]: 0.1 µg/mL (≈ 0.267 µM) | MIC [8]: 0.1 µg/mL (≈ 0.267 µM) | MIC [9]: ≤ 0.05 µg/mL | MIC [10]: 0.1 µg/mL (≈ 0.267 µM) | MIC [11]: 0.39 µg/mL (≈ 1.04 µM) | MIC [12]: 0.2 µg/mL (≈ 0.534 µM)

NC1CN(c2c(F)cc3c(=O)c(C(=O)O)cn(C4CC4)c3c2F)CC12CCC2 (stereo not drawn) [Compound 94]
MIC [1]: ≤ 0.05 µg/mL | MIC [2]: ≤ 0.05 µg/mL | MIC [3]: ≤ 0.05 µg/mL | MIC [4]: 0.1 µg/mL (≈ 0.257 µM) | MIC [5]: 0.1 µg/mL (≈ 0.257 µM) | MIC [6]: 0.1 µg/mL (≈ 0.257 µM) | MIC [7]: 0.39 µg/mL (≈ 1 µM) | MIC [8]: 0.2 µg/mL (≈ 0.514 µM) | MIC [9]: ≤ 0.05 µg/mL | MIC [10]: ≤ 0.05 µg/mL | MIC [11]: 0.39 µg/mL (≈ 1 µM) | MIC [12]: 0.2 µg/mL (≈ 0.514 µM)

NC1CN(c2c(F)cc3c(=O)c(C(=O)O)cn(C4CC4)c3c2F)CC12CCCC2 (stereo not drawn) [Compound 95, 7-(4-amino-2-azaspiro[4.4]nonan-2-yl)-1-cyclopropyl-6,8-difluoro-4-oxo-1,4-dihydroquinoline-3-carboxylic acid]
MIC [1]: ≤ 0.05 µg/mL | MIC [2]: ≤ 0.05 µg/mL | MIC [3]: ≤ 0.05 µg/mL | MIC [4]: ≤ 0.05 µg/mL | MIC [5]: 0.1 µg/mL (≈ 0.248 µM) | MIC [6]: 0.39 µg/mL (≈ 0.967 µM) | MIC [7]: 0.2 µg/mL (≈ 0.496 µM) | MIC [8]: 0.1 µg/mL (≈ 0.248 µM) | MIC [9]: ≤ 0.05 µg/mL | MIC [10]: 0.1 µg/mL (≈ 0.248 µM) | MIC [11]: 0.2 µg/mL (≈ 0.496 µM) | MIC [12]: 0.2 µg/mL (≈ 0.496 µM)

C[C@H]1COc2c(N3CC(N)C4(CCC4)C3)c(F)cc3c(=O)c(C(=O)O)cn1c23 (stereo partly drawn) [Compound 98, 10-(8-Amino-6-azaspiro[3.4]octan-6-yl)-9-fluoro-2,3-dihydro-3-(S)-methyl-7-oxo-7H-pyrido[1,2,3-de][1,4]-benzoxazine-6-carboxylic acid]
MIC [1]: ≤ 0.05 µg/mL | MIC [2]: ≤ 0.05 µg/mL | MIC [3]: ≤ 0.05 µg/mL | MIC [4]: 0.2 µg/mL (≈ 0.516 µM) | MIC [5]: 0.1 µg/mL (≈ 0.258 µM) | MIC [6]: 0.39 µg/mL (≈ 1.01 µM) | MIC [7]: 0.2 µg/mL (≈ 0.516 µM) | MIC [8]: 0.2 µg/mL (≈ 0.516 µM) | MIC [9]: ≤ 0.05 µg/mL | MIC [10]: ≤ 0.05 µg/mL | MIC [11]: 0.39 µg/mL (≈ 1.01 µM) | MIC [12]: 0.2 µg/mL (≈ 0.516 µM)

O=C(O)c1cn(C2CC2)c2c(F)c(N3CC(CO)C4(CCC4)C3)c(F)cc2c1=O (stereo not drawn) [Compound 108, 1-Cyclopropyl-6,8,difluoro-7-(8-hydroxymethyl-6-azaspiro-[3.4]octan-6-yl)-4-oxo-1,4-dihydroquinoline-3-carboxylic acid]
MIC [1]: 0.2 µg/mL (≈ 0.495 µM) | MIC [2]: 0.2 µg/mL (≈ 0.495 µM) | MIC [3]: 0.1 µg/mL (≈ 0.247 µM) | MIC [4]: 0.78 µg/mL (≈ 1.93 µM) | MIC [5]: 1.56 µg/mL (≈ 3.86 µM) | MIC [6]: 1.56 µg/mL (≈ 3.86 µM) | MIC [7]: 0.39 µg/mL (≈ 0.964 µM) | MIC [8]: 1.56 µg/mL (≈ 3.86 µM) | MIC [9]: ≤ 0.05 µg/mL | MIC [10]: ≤ 0.05 µg/mL | MIC [11]: 0.39 µg/mL (≈ 0.964 µM) | MIC [12]: 0.2 µg/mL (≈ 0.495 µM)

N[C@@H]1CN(c2nc3c(cc2F)c(=O)c(C(=O)O)cn3-c2ccc(F)cc2F)CC12CC2 [Compound 111b, (-)-7-[7-(S)-amino-5-azaspiro[2.3]heptan-5-yl)-6-fluoro-1-(2,4-difluorophenyl)-1,4-dihydro-4-oxo-1,8-naphthyridine-3-carboxylate]
MIC [1]: ≤ 0.05 µg/mL | MIC [2]: ≤ 0.05 µg/mL | MIC [3]: ≤ 0.05 µg/mL | MIC [4]: 0.2 µg/mL (≈ 0.465 µM) | MIC [5]: 0.1 µg/mL (≈ 0.232 µM) | MIC [6]: 0.2 µg/mL (≈ 0.465 µM) | MIC [7]: 0.1 µg/mL (≈ 0.232 µM) | MIC [8]: 0.2 µg/mL (≈ 0.465 µM) | MIC [9]: ≤ 0.05 µg/mL | MIC [10]: 0.1 µg/mL (≈ 0.232 µM) | MIC [11]: 0.2 µg/mL (≈ 0.465 µM) | MIC [12]: 0.39 µg/mL (≈ 0.906 µM)
